Patent EP0292365A2, “4-Amino-5,8-quinazolindione derivatives, process for their preparation and pharmaceutical compositions containing them” (CENTRE NATIONAL DE LA RECHERCHE SCIENTIFIQUE, priority 1987, dated 1988)

What was measured:
lignée HBL = assay: Effect on cell cycle phases (cell kinetics parameters), HBL line; assay type: cell-based, humaine; details: for G2±M / GO-G1 / S / G2+M / G1-GO: HBL
Procedure: Les cellules tumorales en croissance exponentielle sont ensemencées (10.000 cellules/ml) dans des boîtes à Petri contenant au fond de la boîte un couvre-objet (18 x 18 mm) et 3 ml de MEM (MEM = milieu essentiel minimum) + 5 % FCS (FCS = serum de veau fetal) (v/v). […] Trois couvre-objets sont fixés pour chaque condition expérimentale : éthanol 95° (75 v), formol neutre à 40 % (20 v), acide acétique (5 v), pendant 10 minutes. Les cellules témoins cultivées dans le milieu expérimental sans le produit à tester sont fixées au même moment. A la fin de la fixation, les couvre-objets sont retournés et montés sur des lames histologiques à l'aide de produit commercialisé sous la marque DPX par la Société British Drug House et conservés à l'abri de la lumière et à 4° en attendant d'être colorés.
Les lames avec les couvre-objets sont colorées par une réaction de Feulgen modifiée. Toutes les lames d'une condition expérimentale sont conditionnées par le réactif de Feulgen en même temps, pendant une heure, après hydrolyse dans un milieu HCI 6N pendant une heure à 20° C. Les préparations cellulaires sont ensuite conservées à l'abri de la lumière et à 4°C en attendant l'analyse.
Grâce à un système d'analyse microscopique à balayage automatique, on détermine l'effet de la drogue sur la croissance cellulaire, au cours du temps, sur deux lignées cellulaires tumorales d'origine humaine : la lignée MCF-7 d'origine mammaire et la lignée HBL (mélanome malin).
On a représenté sur le tableau D BIS les résultats relatifs aux effets du composé 63 au cours du temps sur les différentes phases du cycle cellulaire (lignée HBL) où il est possible d'observer le nombre de cellules survivant à chaque phase du cycle cellulaire.
Dans les tableaux, GO-G1, S et G2 + M correspondent à des différentes phases de multiplication des cellules, telles qu'elles sont définies dans "Cell proliferation kinetics of MCF-7 human mammary carcinome cells in culture and effects of tamoxifen on exponentially growing and plateau - phase cells" R.L. Sutherland, R.E. Hall and I.W. Taylor, Cancer Research 43, pp. 3998 à 4006, 1983.

Mélanome B16 = assay type: in vivo, souris BDF1
From the text: Afin de tester l'activité antitumorale des composés décrits plus haut, on a utilisé les leucémies murines P388 et L1210, ainsi que le mélanome murin B16. La leucémie P388 est considère comme très sensible et permet une première sélection. D'autre part, une substance ayant une grande activité sur la leucémie L1210 a une grande chance d'être active en clinique humaine (J.M. Venditti; Relevance of transplantable animal tumor systems to the Selection of new agents for clinical trial in pharmacological basis of cancer chemotherapy. The University of Texas ed. Williams and Wilkins, publ. 1975, Baltimore USA).
Cette étude a été réalisée sur 1, 2 ou 3 tumeurs murines expérimentales selon le schéma suivant :
Les produits en solution dans l'eau ou en suspension dans du Klucel sont administrés par voie intrapéritonéale 24 heures après la greffe des cellules tumorales (10 animaux par série), soit en injection unique (J1), soit pendant 9 jours consécutifs (Ji-9). Les morts sont relevés chaque jour à la même heure. La comparaison du temps médian de survie des souris témoins (C) et des souris traitées (T) permet d'apprécier l'activité antitumorale du produit. On adopte comme critère d'activité minimale la valeur de T/C supérieure ou égale à 125 % conformément aux critères établis par GERAN et par l'O.M.S. (Réf. GERAN R.I., GREENBERG N.H., MACDONALD M.M., SCHUMACHER A.M. and ABBOTT B.J. Protocols for screening chemical agents and natural products against animal tumors and other biological systems. Cancer Chemother. Rep. Part 3, 3, 1-103 (1972)).
Lorsque le composé est actif sur plusieurs tumeurs, son administration par d'autres voies que la voie intrapéritonéale (i.p.) est envisagée : orale (p.o) et intraveineuse (i.v). Les résultats des essais effectués à l'aide du composé 63 sont rassemblés dans le tableau IV ci-après.
Dans les tableaux IV et IV Bis, P représentent la variation de poids entre J1 et J5 des animaux traités; lorsque P est supérieure à environ 4 g, cela signifie que la dose à laquelle le composé a été testé est toxique.

[1] = B16, greffe ip(susp. au 1/10), ip J1-9, dose optimale 0,2 mg/kg/inj.

## CN(C)CCCNc1ncnc2c1C(=O)C(N1CC1)=C(N1CC1)C2=O [composé 63]
lignée HBL; F (10µg/ml), 1 jour
  G2±M: 14.0 ± 0.1 ns
  GO-G1: 62.7 ± 2.0 ns
  S: 23.3 ± 2.0 ns
lignée HBL; F (10µg/ml), 2 jours
  G2+M: 13.3 ± 2.2 ns
  GO-G1: 58.7 ± 0.9
  S: 28.0 ± 2.1
lignée HBL; F (10µg/ml), 3 jours
  G2+M: 12.3 ± 0.7 ns
  GO-G1: 59.7 ± 0.9
  S: 28.0 ± 1.0
lignée HBL; F (10µg/ml), 4 jours
  G1-GO: 59.0 ± 1.5 ns
  G2+M: 12.3 ± 1.9 ns
  S: 28.7 ± 0.7 ns
lignée HBL; M (1µg/ml), 1 jour
  G2±M: 12.7 ± 1.5 ns
  GO-G1: 62.3 ± 1.9 ns
  S: 25.0 ± 3.6 ns
lignée HBL; M (1µg/ml), 2 jours
  G2+M: 13.7 ± 1.2 ns
  GO-G1: 58.3 ± 1.3
  S: 28.0 ± 1.0
lignée HBL; M (1µg/ml), 3 jours
  G2+M: 15.3 ± 1.3 ns
  GO-G1: 56.7 ± 1.8
  S: 28.0 ± 3.1
lignée HBL; M (1µg/ml), 4 jours
  G1-GO: 58.0 ± 0.6 ns
  G2+M: 16.0 ± 2.1
  S: 26.0 ± 1.7 ns
lignée HBL; f (0.1µg/ml), 1 jour
  G2±M: 12.7 ± 1.2 ns
  GO-G1: 56.0 ± 1.5
  S: 31.3 ± 2.6
lignée HBL; f (0.1µg/ml), 2 jours
  G2+M: 10.3 ± 2.2 ns
  GO-G1: 53.0 ± 1.5
  S: 36.7 ± 3.7
lignée HBL; f (0.1µg/ml), 3 jours
  G2+M: 11.0 ± 0.6 ns
  GO-G1: 53.7 ± 1.3
  S: 35.3 ± 0.9
lignée HBL; f (0.1µg/ml), 4 jours
  G1-GO: 53.3 ± 1.2
  G2+M: 14.0 ± 2.3 ns
  S: 32.7 ± 3.5 ns
lignée HBL; summary of tableau D BIS
  effet sur le cycle cellulaire (HBL): bloque les cellules en phase S
Mélanome B16; [1]
  survivants 60 jours: 2
  Δ P J1-J5: 0 g
Mélanome B16; B16, greffe ip(susp. au 1/10), ip J1-9, dose optimale 0,2 mg/kg/inj., survivants inclus
  T/C: 192%
Mélanome B16; B16, greffe ip(susp. au 1/10), traitement ip J1-9
  Doses actives (T/C ≥ 125 %): 0,05-0,8 mg/kg/inj.
Mélanome B16; summary
  activité sur le mélanome B16: très efficace
